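Cells were grown in 96-well plates and exposed to each compound for 48 hours at five concentrations; endpoints were interpolated linearly between bracketing concentrations, or set to the highest concentration if not reached. TGI is the concentration that stops growth completely.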
How the values were obtained:
Assay in all cases: DTP human tumour cell line panel, 48 h
[1] = tested on: CAKI-1 renal
[2] = tested on: CCRF-CEM leukemia
[3] = tested on: COLO 205 colon
[4] = tested on: DU-145 prostate
[5] = tested on: IGROV1 ovarian
[6] = tested on: MDA-MB-231 breast
[7] = tested on: NCI-H23 lung
[8] = tested on: NCI-H522 lung
[9] = tested on: OVCAR-5 ovarian
[10] = tested on: SK-MEL-2 melanoma
[11] = tested on: UACC-257 melanoma
[12] = tested on: UACC-62 melanoma

Structure (SMILES)	TGI [1] [µM]	TGI [2] [µM]	TGI [3] [µM]	TGI [4] [µM]	TGI [5] [µM]	TGI [6] [µM]	TGI [7] [µM]	TGI [8] [µM]	TGI [9] [µM]	TGI [10] [µM]	TGI [11] [µM]	TGI [12] [µM]
CC/C=C\C/C=C\C/C=C\CCCCCCCC(=O)OC(COC(=O)CCCCCCCCCCCCCCCCC)COC1OC(CO)C(O)C(O)C1O (centres undefined)	> 25	> 25	> 25	> 25	> 25	> 25	> 25	> 25	> 25	> 25	> 25	> 25
Clc1cccc(C2ON=C(c3ccccc3)N2C23CC4CC(CC(C4)C2)C3)c1Cl (centres undefined)	> 10	> 10	> 10	> 10	> 10	> 10	> 10	> 10	> 10	> 10	> 10	> 10
